Measurements as given in patent US20250368666A1, “INDAZOLE COMPOUNDS” (TYRA BIOSCIENCES, INC., priority 2022, published 2025).

Experiments:
FGFR3 (V555M) = target: T1, FGFR3 (V555M) (Homo sapiens, UniProt P22607, V555M); assay: Kinase binding assay (kinase-tagged T7 phage, affinity beads, qPCR), Kd; details: V555M mutant; read-out: FGFR3 (V555M) (Kd nM)
T1 construct: made in house; host or cells: E. coli (BL21-derived), T7 phage
In short: (§1)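 Readout was qPCR of kinase eluted from ligand-coated affinity beads after competition with test compound. Kinases were expressed as T7 phage fusions in E. coli. Binding constants were derived by non-linear least-squares Hill fitting, Hill slope −1.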

FGFR2 = target: T2, FGFR2 (Homo sapiens, UniProt P21802); assay: as above; details: read-out: FGFR2 (Kd nM)
T2 construct: made in house; host or cells: E. coli (BL21-derived), T7 phage
T2 sequence (P21802 22-821): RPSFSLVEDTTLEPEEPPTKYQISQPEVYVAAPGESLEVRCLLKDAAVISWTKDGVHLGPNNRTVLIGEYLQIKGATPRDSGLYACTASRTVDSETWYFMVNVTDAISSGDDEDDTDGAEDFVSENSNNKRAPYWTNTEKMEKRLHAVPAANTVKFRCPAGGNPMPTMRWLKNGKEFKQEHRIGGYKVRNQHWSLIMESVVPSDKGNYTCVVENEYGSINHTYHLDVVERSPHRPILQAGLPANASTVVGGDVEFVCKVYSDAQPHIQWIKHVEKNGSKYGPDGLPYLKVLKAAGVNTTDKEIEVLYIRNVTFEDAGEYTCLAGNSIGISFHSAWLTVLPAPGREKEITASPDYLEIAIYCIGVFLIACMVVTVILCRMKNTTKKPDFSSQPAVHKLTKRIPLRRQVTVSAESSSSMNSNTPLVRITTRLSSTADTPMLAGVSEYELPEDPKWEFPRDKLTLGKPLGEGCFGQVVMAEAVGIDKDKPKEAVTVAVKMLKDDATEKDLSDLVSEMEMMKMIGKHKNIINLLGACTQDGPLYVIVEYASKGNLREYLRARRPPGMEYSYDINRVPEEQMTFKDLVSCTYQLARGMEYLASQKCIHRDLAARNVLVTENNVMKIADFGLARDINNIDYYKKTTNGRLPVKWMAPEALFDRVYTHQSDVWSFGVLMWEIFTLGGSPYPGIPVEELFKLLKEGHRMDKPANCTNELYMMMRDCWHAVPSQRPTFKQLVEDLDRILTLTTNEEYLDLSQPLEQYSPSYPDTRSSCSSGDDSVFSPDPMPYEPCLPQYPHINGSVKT
In short: as §1

FGFR1 = target: T3, FGFR1 (Homo sapiens, UniProt P11362); assay: as above; details: read-out: FGFR1 (Kd nM)
T3 construct: made in house; host or cells: E. coli (BL21-derived), T7 phage
T3 sequence (P11362 22-822): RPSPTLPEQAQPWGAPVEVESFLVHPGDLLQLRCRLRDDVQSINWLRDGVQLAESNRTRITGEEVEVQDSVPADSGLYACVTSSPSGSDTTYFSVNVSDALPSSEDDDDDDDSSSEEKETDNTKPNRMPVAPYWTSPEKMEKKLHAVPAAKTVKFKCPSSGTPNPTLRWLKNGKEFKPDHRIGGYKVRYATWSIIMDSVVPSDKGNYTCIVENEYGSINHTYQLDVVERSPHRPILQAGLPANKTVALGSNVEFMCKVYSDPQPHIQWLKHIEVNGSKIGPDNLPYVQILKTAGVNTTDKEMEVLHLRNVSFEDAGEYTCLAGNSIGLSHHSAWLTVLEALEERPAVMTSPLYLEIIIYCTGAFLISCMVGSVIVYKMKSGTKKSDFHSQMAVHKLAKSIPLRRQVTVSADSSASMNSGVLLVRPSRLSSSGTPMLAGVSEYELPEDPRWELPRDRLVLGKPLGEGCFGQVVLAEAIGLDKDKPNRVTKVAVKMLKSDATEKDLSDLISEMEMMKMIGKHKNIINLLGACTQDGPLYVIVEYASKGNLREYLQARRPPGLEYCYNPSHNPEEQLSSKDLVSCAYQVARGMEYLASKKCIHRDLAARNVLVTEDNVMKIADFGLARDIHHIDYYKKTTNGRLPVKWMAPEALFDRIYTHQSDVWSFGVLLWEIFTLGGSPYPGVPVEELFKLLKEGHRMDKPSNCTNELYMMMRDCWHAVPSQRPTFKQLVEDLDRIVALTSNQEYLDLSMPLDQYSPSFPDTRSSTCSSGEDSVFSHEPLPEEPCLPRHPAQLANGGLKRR
In short: as §1

FGFR3 = target: T4, FGFR3 (Homo sapiens, UniProt P22607); assay: as above; details: read-out: FGFR3 (Kd nM)
T4 construct: made in house; host or cells: E. coli (BL21-derived), T7 phage
T4 sequence (P22607 23-806): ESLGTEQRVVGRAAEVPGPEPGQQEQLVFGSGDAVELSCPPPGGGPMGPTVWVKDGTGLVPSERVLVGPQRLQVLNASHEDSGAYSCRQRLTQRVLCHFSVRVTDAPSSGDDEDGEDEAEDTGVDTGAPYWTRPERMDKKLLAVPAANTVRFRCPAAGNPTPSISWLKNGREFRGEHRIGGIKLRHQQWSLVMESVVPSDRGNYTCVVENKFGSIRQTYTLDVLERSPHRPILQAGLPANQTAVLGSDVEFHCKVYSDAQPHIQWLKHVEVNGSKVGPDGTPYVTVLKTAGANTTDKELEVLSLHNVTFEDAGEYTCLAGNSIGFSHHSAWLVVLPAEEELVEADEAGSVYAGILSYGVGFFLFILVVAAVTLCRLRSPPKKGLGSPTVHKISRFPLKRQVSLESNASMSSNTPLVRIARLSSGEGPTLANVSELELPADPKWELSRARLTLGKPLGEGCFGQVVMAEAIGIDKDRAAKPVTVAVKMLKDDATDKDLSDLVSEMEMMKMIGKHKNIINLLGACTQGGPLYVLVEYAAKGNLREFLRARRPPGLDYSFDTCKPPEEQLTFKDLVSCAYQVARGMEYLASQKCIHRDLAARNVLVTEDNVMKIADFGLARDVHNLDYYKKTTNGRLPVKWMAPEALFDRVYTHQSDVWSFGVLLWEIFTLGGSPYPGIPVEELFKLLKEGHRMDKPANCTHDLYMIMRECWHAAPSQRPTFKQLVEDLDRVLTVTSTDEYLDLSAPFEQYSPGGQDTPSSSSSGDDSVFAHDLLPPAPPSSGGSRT
In short: as §1

FGFR4 = target: T5, FGFR4 (Homo sapiens, UniProt P22455); assay: as above; details: read-out: FGFR4 (Kd nM)
T5 construct: made in house; host or cells: E. coli (BL21-derived), T7 phage
T5 sequence (P22455 22-802): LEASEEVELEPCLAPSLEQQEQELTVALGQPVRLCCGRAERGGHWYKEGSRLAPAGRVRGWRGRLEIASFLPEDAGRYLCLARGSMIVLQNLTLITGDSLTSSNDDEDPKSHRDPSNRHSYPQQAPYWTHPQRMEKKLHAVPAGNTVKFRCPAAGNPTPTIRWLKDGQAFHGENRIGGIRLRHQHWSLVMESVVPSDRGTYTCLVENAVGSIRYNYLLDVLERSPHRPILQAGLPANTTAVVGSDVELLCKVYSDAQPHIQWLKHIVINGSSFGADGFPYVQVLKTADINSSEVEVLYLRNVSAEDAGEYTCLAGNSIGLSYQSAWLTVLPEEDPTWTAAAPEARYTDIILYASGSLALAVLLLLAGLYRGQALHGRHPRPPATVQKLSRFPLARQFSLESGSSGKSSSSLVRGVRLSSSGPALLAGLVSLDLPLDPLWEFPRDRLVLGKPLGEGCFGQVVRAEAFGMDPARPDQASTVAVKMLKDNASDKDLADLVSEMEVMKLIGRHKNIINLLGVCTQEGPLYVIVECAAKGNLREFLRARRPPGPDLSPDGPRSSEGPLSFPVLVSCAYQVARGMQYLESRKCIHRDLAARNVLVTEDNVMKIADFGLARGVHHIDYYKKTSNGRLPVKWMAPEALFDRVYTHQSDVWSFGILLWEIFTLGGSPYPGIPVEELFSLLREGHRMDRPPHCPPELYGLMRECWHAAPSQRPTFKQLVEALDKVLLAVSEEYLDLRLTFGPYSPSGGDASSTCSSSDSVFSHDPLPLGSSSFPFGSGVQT
In short: as §1

[1] = system: RT112/84 cell line (FGFR3-fusion); assay: Cancer cell line cell viability assay (Cell Titer-Glo), 72 hr; format: cell-based; details: Homo sapiens, RT112/84, RT112/84 cell line (FGFR3-fusion)
In short: (§2)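 Intracellular ATP was measured by Cell Titer-Glo 2.0 luminescence after cells were incubated with compound dilutions (top 3 μM, 4-fold, 9 doses). Values were expressed relative to DMSO-treated cells and IC50 was calculated from a variable-slope dose-response curve.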

[2] = system: KATO-III cell line (FGFR2 amplification); assay: as above; format: cell-based; details: Homo sapiens, KATO III
In short: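 Cells seeded at 5,000-20,000/well, incubated overnight, then treated with a 9-dose, 4-fold dilution series from 3 μM in triplicate at 37° C, 5% CO2. Viability read by Cell Titer-Glo 2.0 luminescence as percent of DMSO control; IC50 from 4-parameter variable-slope sigmoidal fit.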

[3] = system: KG-1 cell line (FGFR 1-fusion); assay: as above; format: cell-based; details: Homo sapiens, KG-1, KG-1 cell line (FGFR1-fusion)
In short: as §2

T1 sequence (P22607 23-806 V555M): as the sequence (P22607 23-806) above, with V533M counted along it

| Structure (SMILES) | Kd (FGFR3 (V555M)) [nM] | Kd (FGFR2) [nM] | Kd (FGFR1) [nM] | Kd (FGFR3) [nM] | Kd (FGFR4) [nM] | IC50 [1] [nM] | IC50 [2] [nM] | IC50 [3] [nM] |
| --- | --- | --- | --- | --- | --- | --- | --- | --- |
| CNC1(C)CN(c2ccc(-c3n[nH]c4cc(F)c(O[C@H](C)c5c(Cl)cncc5Cl)cc34)cn2)C1 [Example 59, 1-[5-[5-[(1R)-1-(3,5-dichloro-4-pyridyl)ethoxy]-6-fluoro-1H-indazol-3-yl]-2-pyridyl]-N,3-dimethyl-azetidin-3-amine] | 1 to 50 | 1 to 50 | 1 to 50 | 1 to 50 | 1 to 50 | 0.1 to 50 | 200 to 1000 | 200 to 1000 |
| C[C@@H](Oc1ccc2[nH]nc(-c3ccc(N4CC(C)(OCC(C)(C)O)C4)nc3)c2c1)c1c(Cl)cncc1Cl [Example 93, (R)-1-((1-(5-(5-(1-(3,5-dichloropyridin-4-yl)ethoxy)-1H-indazol-3-yl)pyridin-2-yl)-3-methylazetidin-3-yl)oxy)-2-methylpropan-2-ol] | 1 to 50 | 1 to 50 | 1 to 50 | 1 to 50 | 1 to 50 | 0.1 to 50 | 0.1 to 50 | 50 to 200 |
| C[C@H](O)CNC1(C)CN(c2ncc(-c3n[nH]c4ccc(O[C@H](C)c5c(Cl)cncc5Cl)cc34)cc2F)C1 [Example 112, (S)-1-((1-(5-(5-((R)-1-(3,5-dichloropyridin-4-yl)ethoxy)-1H-indazol-3-yl)-3-fluoropyridin-2-yl)-3-methylazetidin-3-yl)amino)propan-2-ol] | 1 to 50 | 1 to 50 | 1 to 50 | 1 to 50 | 1 to 50 | 0.1 to 50 | 0.1 to 50 | 0.1 to 50 |
| C[C@@H](Oc1ccc2[nH]nc(-c3cnc(N4CC(C)(NCCO)C4)c(F)c3)c2c1)c1c(Cl)cncc1Cl [Example 114, (R)-2-((1-(5-(5-(1-(3,5-dichloropyridin-4-yl)ethoxy)-1H-indazol-3-yl)-3-fluoropyridin-2-yl)-3-methylazetidin-3-yl)amino)ethan-1-ol] | 1 to 50 | 1 to 50 | 1 to 50 | 1 to 50 | 1 to 50 | 0.1 to 50 | 0.1 to 50 | 0.1 to 50 |

Other lines, results leading:

| Kd (FGFR3 (V555M)) [nM] | Kd (FGFR2) [nM] | Kd (FGFR1) [nM] | Kd (FGFR3) [nM] | Kd (FGFR4) [nM] | IC50 [1] [nM] | IC50 [2] [nM] | IC50 [3] [nM] | Structure (SMILES) |
| --- | --- | --- | --- | --- | --- | --- | --- | --- |
| 1 to 50 | 1 to 50 | 50 to 300 | 1 to 50 | 1 to 50 | 0.1 to 50 | 50 to 200 | 200 to 1000 | Cc1ncc(Cl)c([C@@H](C)Oc2ccc3[nH]nc(-c4cnc(N5CC(C)(CS(C)(=O)=O)C5)c(F)c4)c3c2)c1Cl [Example 210, 5-[(1R)-1-(3,5-dichloro-2-methyl-4-pyridyl)ethoxy]-3-[5-fluoro-6-[3-methyl-3-(methylsulfonyl-methyl)azetidin-1-yl]-3-pyridyl]-1H-indazole] |
| 1 to 50 | 1 to 50 | 1 to 50 | 1 to 50 | 1 to 50 | 50 to 200 | 50 to 200 | 50 to 200 | Cc1ncc(Cl)c([C@@H](C)Oc2ccc3[nH]nc(-c4cnc(N5CC(C)(NCC6CC6)C5)c(F)c4)c3c2)c1Cl [Example 209, N-(cyclo-propylmethyl)-1-[5-[5-[(1R)-1-(3,5-dichloro-2-methyl-4-pyridyl)ethoxy]-1H-indazol-3-yl]-3-fluoro-2-pyridyl]-3-methyl-azetidin-3-amine] |
| 1 to 50 | 1 to 50 | 1 to 50 | 1 to 50 | 1 to 50 | 0.1 to 50 | 0.1 to 50 | 50 to 200 | C[C@@H]1CN(C2(C)CN(c3ccc(-c4n[nH]c5ccc(O[C@H](C)c6c(Cl)cncc6Cl)cc45)cn3)C2)CCO1 [Example 211, (R)-4-(1-(5-(5-((R)-1-(3,5-dichloropyridin-4-yl)ethoxy)-1H-indazol-3-yl)pyridin-2-yl)-3-methylazetidin-3-yl)-2-methylmorpholine] |
